Usually IC50 stands for the concentration that gives 50% inhibition. Lower therefore signals inhibition by little substance. What is called Ki is a dissociation constant, usually derived from enzyme kinetics or from competition with a known ligand. A low value points to higher affinity. The term Km denotes the concentration of substrate that gives half-maximal velocity.

The record followed here is patent US5744621A, “Irreversible HIV protease inhibitors, intermediates, compositions and processes for the preparation thereof” (Lucky Limited., priority 1992, dated 1998).

Read-outs that look alike come from different tables or passages of the source. Bounds are passed on as bounds.

Data set [1] relates to HIV-1. The experiment in a line: Anti-viral activity: syncytium formation (Sup T1) or reverse transcriptase assay (H9). The format is cell-based. Conditions: Human immunodeficiency virus 1, SUP-T1. How it is done:
The anti-viral activity of the compounds of the present invention was determined by measuring the concentration of the compounds that inhibits the proliferation of HIV by 50%(IC50) through a survey for syncytium formation or reverse transcriptase assay.
1×10^5 cells of each of H9(ATCC HTB 176) and Sup T1 cell lines were added to the wells of a 24-well microtiter plate and various concentrations so the compounds of the present invention were added thereto. 200 TCID50 (200-fold of 50% tissue culture infection dose) of HIV-1 inoculum and rpmi-1640 medium(Sigma Chemical Co., U.S.A) were added successively to the wells and the plate was incubated at 37° C. In case of Sup T1, the number of syncytium formed was investigated after 3 to 9 days. IC50 of each compound was determined by measuring the concentration of inhibitor that can reduce the number of syncytium by 50% compared with those formed in the same condition without the inhibitor.
In case of H9, three-quarters(3/4) of the culture medium in volume was refreshed every 3 days; and 6 ml of the culture fluid was centrifuged at 1000 rpm for 10 minutes. To 5 ml of the resulting supernatant were added 2.5 ml of 30% polyethyleneglycol(PEG, M.W. 6000-8000) and 0.4M NaCl. The resulting solution was allowed to stand at 0° C. overnight to precipitate virus particles. The solution was centrifuged at 2000 rpm for 45 minutes, the supernatant was discarded therefrom and the precipitate was diluted with 20 μl of a reverse transcriptase suspension buffer(50 mM tris-HCl, pH 7.5, 1 mM dithiothreitol, 20% glycerol, 0.25M KCl and 0.25% Triton X-100). The resulting suspension was stored in an Effendorf tube at -70° C. until used. A procedure of freezing said virus suspension for 2 minutes in dry ice and thawing same at 37° C. for 2 minutes was repeated three times and the resulting suspension was centrifuged at 4° C. The resulting supernatant was used in carrying out the reverse transcriptase assay.
10 μl of the said viral suspension was added to a solution of: 10 μl of buffer solution(250 mM tris-HCl, pH 7.5, 37.5 mM MgCl2, 0.25% triton X-100), 1.2 μl of 200 mM dithiothreitol, 5 μl of 10 μM oligo(dT)-poly(A)(Boeringer Manheim, 12-18 oligomer), 1 μl(1 μCi) of ^3 H-TTP(Thymidinetri-phosphate) and 23.6 μl of water; and the resulting mixture was placed at 37° C. After 1 hour, the mixture was poured onto a WHATMAN DEB1 filter and the filter was washed three times with 5 ml of 2×SSC buffer solution(17.53 g of sodium chloride, 8.82 g of sodium citrate, pH 7.0, 1 liter of water) for about 10 minutes each time and twice with 95% ethanol for 10 seconds. The filter was put onto aluminium foil and dried with an infra-red lamp. The amount of radioactivity was counted using a liquid scintillation counter. IC50 of each compound was determined by measuring the concentration of inhibitor that can reduce the activity of reverse transcriptase by 50%.

A short description of data set [2]: Cytotoxicity in H9 or Sup T1 cells (trypan blue dye exclusion). The format is cell-based. Conditions: human. As for the experimental part: To determine the cytotoxicity of the compounds of the present invention, 0.1 μM to 100 μM of the novel compounds were added to H9 cell or Sup T1 cell and the mixture was cultured on a rpmi-1640 medium at 37° C. The medium was refreshed every 3 days and the extent of cell proliferation was observed using Hemacytometer according to the trypan blue dye exclusion technique which is well known in the art. CT50 (i.e., concentration that causes death of cells by 50%) was determined. For reference, AZT(Burrows-Wellcome), A-75925 (Abbott, C2 symmetric compound) and Ro-31-8959(F. Hofmann-La Roche) were used as control compounds.

Data set [3] addresses T1, HIV-1 protease (Human immunodeficiency virus type 1 group M subtype B, UniProt P04585).
T1 construct: 2.6 nM of HIV-1 protease
The experiment in a line: Assay for inhibitory effect on HIV protease (residual enzyme activity, HPLC of substrate cleavage). Conditions: for Ki / kinact: HIV-1 protease 2.6 nM; for Ki / kinact / kinact/KI: pH 5.5; for Ki: inhibition constant; for kinact: rate constant of covalent bond formation, read-out: kina (converted); for kinact/KI: second order rate constant, HIV-1 protease, read-out: kina /KI (converted). The format is biochemical. How it is done: The inhibitory effect on HIV protease of the compounds of the present invention was determined by the following method.
To a buffer solution comprising 50 mM sodium acetate, pH 5.5, 1 mM dithiothreitol(DTT), 1 mM ethylenediaminetetraacetate (EDTA), 0.75M ammonium sulfate, 0.2M sodium chloride and 0.1% NP40(NONIDET P-40; Sigma Chemical Co., U.S.A.), were added various concentrations of a compound selected from Compound Nos. 1 to 92 to prepare a preincubation solution. Inhibition reaction was started with the addition of 2.6 nM of HIV-1 protease to the preincubation solution. Each 10 μl of the reaction solution was taken at a given time interval and added to 80 μl of assay solution containing 100 μM of reaction substrate in the same buffer solution as above to assay for the residual enzyme activity. In this context, an oligopeptide(KM =20 μM) consisting of 11 amino acids, i.e., Ser-Ile-Ala-Glu-(p-NO2)-Phe-Leu-Val-Arg-Ala-Lys-His, was used as a reaction substrate, which oligopeptide was to be cleaved in two by the breakage of amide bond between (P--NO2)-Phe and Leu upon the attack of HIV protease. The reaction rate was determined by subjecting the substrate before the reaction and the product after the reaction to HPLC separation and then measuring the relative amount of the product, using the strong absorbance of (p--NO2)-Phe at 280 nm. The amount of reduction in enzyme activity according to the elapsed time were measured and the natural logarithmic values(ln) of the measured amounts were plotted against time to obtain a linear graph and kobs was calculated from the slope of the linear graph.
The inhibition constant was calculated according to the following equation: [formula] wherein: kobs is a rate constant indicating the rate of reduction in enzyme activity according to the elapsed time under the presence of a given concentration of inhibitor,
kina is a rate constant indicating the rate of chemical reaction forming covalent bond between an enzyme and an inhibitor in Michaelis-Menten complex,
KI is an inhibition constant indicating the dissociation rate of Michaelis-Menten complex into an enzyme and an inhibitor, and
[I] means the inhibitor concentration.
The above equation is applicable to an experiment carried out under the condition in which the concentration of inhibitor is far higher than that of enzyme(Steady State Kinetic). […] The inhibition constants KI and kina and second order rate constant kina /KI were obtained by inputting the value of [E]/([E]+[EI]+[EI']) into KINSIM/FITSIM program. FIG. 1 exemplifies a result of the experiment determining the binding ratio of enzymes and inhibitors, which result was obtained by reacting the enzyme and the inhibitor in various concentration ratios for a sufficient time period(at least for 30 minutes), and then plotting the relative activity of the remaining enzyme against [conc. of inhibitor]/[conc. of enzyme].

Where [4] appears, read: concentration that causes death of cells by 50%, H9 or Sup T1 cells, 37° C, read-out: CT50 (the source's name).

`CC(C)(C)NC(=O)[C@@H]1C[C@@H]2CCCC[C@@H]2CN1C[C@@H](O)[C@H](Cc1ccccc1)NC(=O)[C@H](CC(N)=O)NC(=O)c1ccc2ccccc2n1` [Ro-31-8959, reference compound]: 0.04 µM corresponded to half-maximal inhibition in data set [1] (IC50). Besides, in data set [2] (h9 or sup t1 cells), the CC50 is more than 100 µM.

On to `CC[C@H](C)[C@H](NC(=O)C[C@@H]1O[C@@H]1[C@H](Cc1ccccc1)NC(=O)[C@H](CC(N)=O)NC(=O)c1ccc2ccccc2n1)C(=O)OC` [compound 2, N-[5-L-[[N-(2-quinolinecarbonyl)-L-asparaginyl]amino]-epoxy-6-phenyl-hexanoyl]-L-isoleucine methyl ester], for which the IC50 in data set [1] stood at 0.2 µM. In data set [3], the inhibition constant (Ki) was 0.018 µM, the kinact is 0.00367 s⁻¹ and the kinact/KI was 200000 M⁻¹ s⁻¹. Besides, the CC50 in data set [2] (setting [4]) was more than 100 µM.

For `CC[C@H](C)[C@H](NC(=O)C[C@@H]1O[C@@H]1[C@H](Cc1ccccc1)NC(=O)[C@H](CC(N)=O)NC(=O)COc1cccc2ccccc12)C(=O)OC` [compound 3], the midpoint of inhibition in data set [1], the IC50, lay at 3 µM. Moreover, in data set [3], the affinity, expressed as Ki, was 0.04 µM; the kinact was 0.002 s⁻¹; the kinact/KI was 50000 M⁻¹ s⁻¹. Also, the CC50 in data set [2] (setting [4]) is more than 100 µM.

Compound `CC[C@H](C)[C@H](NC(=O)C[C@@H]1O[C@@H]1[C@H](Cc1ccccc1)NC(=O)[C@H](CC(N)=O)NC(=O)c1ccc2ccccc2n1)C(=O)N[C@H](C(=O)OC)C(C)C` [compound 6] gave a half-maximal inhibitory concentration (IC50) in data set [1] of 5 µM. For the same compound, in data set [3], the inhibition constant Ki came to 0.42 µM, the kinact is 0.00217 s⁻¹ and the kinact/KI is 5170 M⁻¹ s⁻¹. The CC50 in data set [2] (setting [4]) was more than 100 µM.

For `CC[C@H](C)[C@H](NC(=O)C[C@@H]1O[C@@H]1[C@H](Cc1ccccc1)NC(=O)[C@H](CC(N)=O)NC(=O)c1ccc2ccccc2n1)C(=O)NCc1ccccc1` [compound 8], half-maximal inhibition in data set [1] (IC50) was put at 7 µM. In addition, in data set [3], the affinity corresponds to a Ki of 0.06 µM, the kinact is 0.002 s⁻¹ and the kinact/KI was 33300 M⁻¹ s⁻¹. Further, the CC50 in data set [2] (setting [4]) was more than 100 µM.

Turning to `CC[C@H](C)[C@H](NC(=O)C[C@@H]1O[C@@H]1[C@H](Cc1ccccc1)NC(=O)[C@H](CC(N)=O)NC(=O)c1ccc2ccccc2n1)C(=O)NCc1ccccn1` [compound 9], 8 µM corresponded to half-maximal inhibition in data set [1] (IC50). Also, in data set [3], the inhibition constant (Ki) was determined as 0.055 µM, the kinact was 0.00183 s⁻¹ and the kinact/KI was 33300 M⁻¹ s⁻¹. Besides, the CC50 in data set [2] (setting [4]) was more than 100 µM.

`COC(=O)C(CCC(N)=O)NC(=O)C[C@@H]1O[C@@H]1[C@H](Cc1ccccc1)NC(=O)[C@H](CC(N)=O)NC(=O)c1ccc2ccccc2n1` (stereo partly shown) [compound 12] showed a half-maximal inhibitory concentration (IC50) in data set [1] of 7 µM. For the same compound, in data set [3], the inhibition constant (Ki) is 0.37 µM, the kinact is 0.005 s⁻¹ and the kinact/KI is 13500 M⁻¹ s⁻¹. Also, in data set [2] (setting [4]), the CC50 is more than 100 µM.

In the case of `COC(=O)C(CCC(N)=O)NC(=O)C[C@@H]1O[C@@H]1[C@H](Cc1ccccc1)NC(=O)[C@H](CC(N)=O)NC(=O)OCc1ccccc1` (stereo partly shown) [compound 13], the 50% inhibitory concentration (IC50) in data set [1] came to 10 µM. Besides, in data set [3], the inhibition constant Ki is 0.52 µM, the kinact was 0.00717 s⁻¹ and the kinact/KI was 13800 M⁻¹ s⁻¹. The CC50 in data set [2] (setting [4]) is more than 100 µM.

Regarding `COC(=O)C(Cc1ccccc1)NC(=O)C(CCC(N)=O)NC(=O)C[C@@H]1O[C@@H]1[C@H](Cc1ccccc1)NC(=O)[C@H](CC(N)=O)NC(=O)c1ccc2ccccc2n1` (stereo partly shown) [compound 14], in data set [1], half-maximal inhibition (IC50) was put at 9 µM. Also, in data set [3], the inhibition constant Ki worked out at 0.35 µM, the kinact is 0.00417 s⁻¹ and the kinact/KI was 11800 M⁻¹ s⁻¹. The CC50 in data set [2] (setting [4]) was more than 100 µM.

Turning to `NC(=O)C[C@H](NC(=O)c1ccc2ccccc2n1)C(=O)N[C@@H](Cc1ccccc1)[C@H]1O[C@H]1CNC(=O)[C@@H](NC=O)c1ccccc1` [compound 91], in data set [3], affinity was put at a Ki of 1.2 µM, the kinact is 0.005 s⁻¹ and the kinact/KI is 4170 M⁻¹ s⁻¹.

As for `NC(=O)C[C@H](NC(=O)c1ccc2ccccc2n1)C(=O)N[C@@H](Cc1ccccc1)[C@H]1O[C@H]1CNC(=O)[C@H](Cc1ccccc1)NC=O` [compound 92], in data set [3], the inhibition constant (Ki) is 1.4 µM, the kinact is 0.00333 s⁻¹ and the kinact/KI is 2330 M⁻¹ s⁻¹.

For the compound “Ser-Ile-Ala-Glu-(p-NO2)-Phe-Leu-Val-Arg-Ala-Lys-His [reference compound]”, the Km in data set [3] (oligopeptide substrate of 11 amino acids, read-out: KM of reaction substrate) stood at 20 µM.
